Experimental data from ChEMBL document CHEMBL5729509, “Compounds and compositions for the treatment of neurodegenerative and inflammatory diseases” (2023).

Experiments:
Plasminogen [1] = target: T1, Plasminogen (Homo sapiens, UniProt P00747); assay: Activities on Plasmin (Boc-QAR-AMC): In a typical test, 100 μl of reaction medium contains the buffer, 1 μl of recombinant enzyme, 1 μl of substrate (Boc-QAR-AMC) and 1 μl of the compound tested at 10 μM (in the control, 1 μl of DMSO). In each well, the inhibitor is deposited in the presence of the enzyme-buffer mixture for preincubation for 15 minutes at 37° C. The enzymatic reaction is then …
T1 sequence (P00747 97-580 limits assumed): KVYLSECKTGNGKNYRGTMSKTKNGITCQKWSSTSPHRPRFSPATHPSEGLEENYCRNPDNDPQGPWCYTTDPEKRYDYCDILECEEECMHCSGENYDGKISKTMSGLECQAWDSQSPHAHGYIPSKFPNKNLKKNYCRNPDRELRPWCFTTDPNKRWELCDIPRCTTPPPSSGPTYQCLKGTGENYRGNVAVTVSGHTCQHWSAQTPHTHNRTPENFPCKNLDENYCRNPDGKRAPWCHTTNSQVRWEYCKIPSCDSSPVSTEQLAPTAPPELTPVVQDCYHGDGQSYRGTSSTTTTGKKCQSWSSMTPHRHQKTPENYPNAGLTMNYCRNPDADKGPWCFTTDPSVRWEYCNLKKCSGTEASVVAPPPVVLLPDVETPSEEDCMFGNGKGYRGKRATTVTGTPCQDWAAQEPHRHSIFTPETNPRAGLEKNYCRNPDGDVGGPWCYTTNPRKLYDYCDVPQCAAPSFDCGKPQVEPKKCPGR
T1 sequence (P00747 581-810 limits assumed): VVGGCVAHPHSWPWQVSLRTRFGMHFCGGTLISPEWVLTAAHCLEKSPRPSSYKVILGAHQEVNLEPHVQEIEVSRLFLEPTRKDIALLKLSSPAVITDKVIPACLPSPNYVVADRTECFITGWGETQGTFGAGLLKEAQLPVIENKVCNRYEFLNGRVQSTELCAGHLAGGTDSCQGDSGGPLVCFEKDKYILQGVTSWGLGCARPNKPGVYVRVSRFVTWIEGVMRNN
Description: Activities on Plasmin (Boc-QAR-AMC): In a typical test, 100 μl of reaction medium contains the buffer, 1 μl of recombinant enzyme, 1 μl of substrate (Boc-QAR-AMC) and 1 μl of the compound tested at 10 μM (in the control, 1 μl of DMSO). In each well, the inhibitor is deposited in the presence of the enzyme-buffer mixture for preincubation for 15 minutes at 37° C. The enzymatic reaction is then triggered by adding the buffer-substrate mixture (100 μM). The release of the 7-amino-4-methylcoumarin fluorescent group (AMC, λex=360 nm, λem=460 nm) following the hydrolysis of the substrate catalyzed by the enzyme is monitored for 30 minutes at 37° C. using a FLUOstar spectrofluorimeter.

Kallikrein-6 [2] = target: T2, Kallikrein-6 (Homo sapiens, UniProt Q92876); assay: Activities on KLK6 (PAR2): In a typical test, 100 μl of reaction medium contains the buffer, 1 μl of recombinant enzyme, 1 μl of substrate (PAR2) and 1 μl of the compound tested at 10 μM (in the control, 1 μl of DMSO). In each well, the inhibitor is deposited in the presence of the enzyme-buffer mixture for preincubation for 15 minutes at 37° C. The enzymatic reaction is then triggered by adding …
Description: Activities on KLK6 (PAR2): In a typical test, 100 μl of reaction medium contains the buffer, 1 μl of recombinant enzyme, 1 μl of substrate (PAR2) and 1 μl of the compound tested at 10 μM (in the control, 1 μl of DMSO). In each well, the inhibitor is deposited in the presence of the enzyme-buffer mixture for preincubation for 15 minutes at 37° C. The enzymatic reaction is then triggered by adding the buffer-substrate mixture (100 μM). The release of the 7-amino-4-methylcoumarin fluorescent group (AMC, λex=360 nm, λem=460 nm) following the hydrolysis of the substrate catalyzed by the enzyme is monitored for 30 minutes at 37° C. using a FLUOstar spectrofluorimeter.

Kallikrein-6 [3] = target: T2, Kallikrein-6; assay: Activities on KLK6 (Boc-QAR-AMC): In a typical test, 100 μl of reaction medium contains the buffer, 1 μl of recombinant enzyme, 1 μl of substrate (Boc-QAR-AMC) and 1 μl of the compound tested at 10 μM (in the control, 1 μl of DMSO). In each well, the inhibitor is deposited in the presence of the enzyme-buffer mixture for preincubation for 15 minutes at 37° C. The enzymatic reaction is then …
Description: Activities on KLK6 (Boc-QAR-AMC): In a typical test, 100 μl of reaction medium contains the buffer, 1 μl of recombinant enzyme, 1 μl of substrate (Boc-QAR-AMC) and 1 μl of the compound tested at 10 μM (in the control, 1 μl of DMSO). In each well, the inhibitor is deposited in the presence of the enzyme-buffer mixture for preincubation for 15 minutes at 37° C. The enzymatic reaction is then triggered by adding the buffer-substrate mixture (100 μM). The release of the 7-amino-4-methylcoumarin fluorescent group (AMC, λex=360 nm, λem=460 nm) following the hydrolysis of the substrate catalyzed by the enzyme is monitored for 30 minutes at 37° C. using a FLUOstar spectrofluorimeter.

Kallikrein-1 = Kallikrein-1 (Homo sapiens, UniProt P06870); assay: Inhibitory Effect on the Enzymatic Activity of KLK: Table 4: The molecules were tested in order to evaluate their possible inhibitory effect on the enzymatic activity of KLK1. The % inhibitions were determined from the residual activity of the hydrolysis of the Boc-PFR-AMC fluorogenic substrate (100 μM) by KLK1 (1.6 nM) after 15 minutes of incubation at 37° C. with each molecule at 10 μM.
Sequence of Kallikrein-1 (P06870 whole entry): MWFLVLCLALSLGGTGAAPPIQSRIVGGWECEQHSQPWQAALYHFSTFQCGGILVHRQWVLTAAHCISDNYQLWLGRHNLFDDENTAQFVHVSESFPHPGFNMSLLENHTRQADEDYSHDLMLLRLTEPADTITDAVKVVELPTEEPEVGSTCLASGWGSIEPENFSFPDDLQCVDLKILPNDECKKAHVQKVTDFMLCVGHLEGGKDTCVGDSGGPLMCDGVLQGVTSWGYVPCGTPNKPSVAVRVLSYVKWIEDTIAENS

Kallikrein-6 [4] = target: T2, Kallikrein-6; assay: Activities on KLK6 (MBP3): In a typical test, 100 μl of reaction medium contains the buffer, 1 μl of recombinant enzyme, 1 μl of substrate (MBP3) and 1 μl of the compound tested at 10 μM (in the control, 1 μl of DMSO). In each well, the inhibitor is deposited in the presence of the enzyme-buffer mixture for preincubation for 15 minutes at 37° C. The enzymatic reaction is then triggered by adding …
Description: Activities on KLK6 (MBP3): In a typical test, 100 μl of reaction medium contains the buffer, 1 μl of recombinant enzyme, 1 μl of substrate (MBP3) and 1 μl of the compound tested at 10 μM (in the control, 1 μl of DMSO). In each well, the inhibitor is deposited in the presence of the enzyme-buffer mixture for preincubation for 15 minutes at 37° C. The enzymatic reaction is then triggered by adding the buffer-substrate mixture (100 μM). The release of the 7-amino-4-methylcoumarin fluorescent group (AMC, λex=360 nm, λem=460 nm) following the hydrolysis of the substrate catalyzed by the enzyme is monitored for 30 minutes at 37° C. using a FLUOstar spectrofluorimeter.

Plasminogen [5] = target: T1, Plasminogen; assay: Activities on Plasmin (PAR4): In a typical test, 100 μl of reaction medium contains the buffer, 1 μl of recombinant enzyme, 1 μl of substrate (PAR4) and 1 μl of the compound tested at 10 μM (in the control, 1 μl of DMSO). In each well, the inhibitor is deposited in the presence of the enzyme-buffer mixture for preincubation for 15 minutes at 37° C. The enzymatic reaction is then triggered by …
Description: Activities on Plasmin (PAR4): In a typical test, 100 μl of reaction medium contains the buffer, 1 μl of recombinant enzyme, 1 μl of substrate (PAR4) and 1 μl of the compound tested at 10 μM (in the control, 1 μl of DMSO). In each well, the inhibitor is deposited in the presence of the enzyme-buffer mixture for preincubation for 15 minutes at 37° C. The enzymatic reaction is then triggered by adding the buffer-substrate mixture (100 μM). The release of the 7-amino-4-methylcoumarin fluorescent group (AMC, λex=360 nm, λem=460 nm) following the hydrolysis of the substrate catalyzed by the enzyme is monitored for 30 minutes at 37° C. using a FLUOstar spectrofluorimeter.

| IC50 (Plasminogen [1]) [µM] | Ki (Plasminogen [1]) [µM] | IC50 (Kallikrein-6 [2]) [µM] | IC50 (Kallikrein-6 [3]) [µM] | Ki (Kallikrein-6 [3]) [µM] | IC50 (Kallikrein-1) [µM] | IC50 (Kallikrein-6 [4]) [µM] | IC50 (Plasminogen [5]) [µM] | SMILES |
| --- | --- | --- | --- | --- | --- | --- | --- | --- |
| 12.5 | 4.66 | 5.06 | 5.42 | 1.92 | 39.3 | 8.34 | – | Cc1ccc(C(=O)Nc2ccc(CN)cc2)c(O)c1 |
| – | 0.67 | – | 1.56 | 1.75 | – | – | – | CC(C)c1ccc(C(=O)Nc2ccc(CN)cc2)c(O)c1 |
| 2.72 | 2.16 | – | – | – | 30.7 | – | – | COc1ccc2c(O)c(C(=O)Nc3ccc(CN)cc3)ccc2c1 |
| 3.75 | – | – | – | – | 5.9 | – | 3.25 | NCc1ccc(NC(=O)c2cc3ccccc3cc2O)cc1 |
| – | – | 2.63 | 1.5 | 2.26 | – | 7.89 | 4.92 | NCc1ccc(NC(=O)c2ccc3ccccc3c2O)cc1 |
